Measurements published in patent US5366980A, “Use of dextromethorphan and an oxidase inhibitor to treat dermatitis” (priority 1993, dated 1994).
Several values for one entry are separate records, joined by “and”; a condition that tells them apart may be missing. Identical values can stand only once. Entries after “also recorded” stand apart in the source; their conditions may differ. Counter-ions that a name gives are not always drawn.

Tests used:
[1] = test system: debrisoquin hydroxylase (sparteine monooxygenase); conditions: Inaba et al 1985, cited from earlier work
debrisoquin hydroxylase [2] = experiment: Urinary DM/DR ratio after oral dextromethorphan without and with quinidine (Example 1); type: in vivo, human; conditions: 150 mg quinidine + 60 mg DM
Description: Since the research that led to this invention was done by a neurologist who was initially interested in finding out whether DM might be able to retard the progress of ALS, the initial studies were done on patients suffering from ALS, most of whom are adults more than 50 years old.
Six patients suffering from ALS were administered orally a single 60 mg dextromethorphan dose. Several hours later, a urine sample was collected, and the urine concentrations of dextromethorphan (DM) and dextrorphan (DR) were measured as described below to determine a DM/DR ratio. […] In a different week, 60 mg of DM and 150 mg of quinidine were orally administered to the same patients, and urinary DM and DR levels and DM/DR ratios were determined again.
DM and DR urinary levels without quinidine were determined by adding […] of thebaine as an internal standard to 1 mL of urine. To this was added 2000 units of beta-glucuronidase in 1 mL of acetate buffer (0.1M, pH 5.0). The mixture was incubated for 18 hours at 37° C. and then extracted by adding 1 mL of phosphate buffer (pH 12, 0.10M) and 7 mL of n-butanol/hexane (10:90 v/v). After mixing and centrifugation, the organic layer was transferred to a clean tube and acidified with 400 uL of 0.01 N HCL. 20 microliters (uL) of aqueous phase was injected into a high performance liquid chromatography (HPLC) system. The HPLC used a phenyl column equilibrated with a mobile phase of acetonitrile:water (51:49, v/v) containing 10 mM KHPO4, 10 mM hexane sulfonic acid, pH 4.0 (flow rate 1.2 mL/min). Detection of thebaine, dextromethorphan and dextrorphan was achieved by fluorescence (Kratos FS-980 Fluorometer) with an excitation wavelength of 228 nm and no emission cutoff filter.
A gas chromatograph/mass spectroscopy (gc/ms) assay was employed for determining dextromethorphan and dextrorphan levels in the presence of quinidine. Briefly, 0.5 ml urine samples were spiked with 500 nanograms (ng) of dimethacrine. The urine pH was adjusted to 5.0 with 0.1M acetate buffer (usually about 1.0 ml), and beta-glucuronidase was added (2000 units/ml urine). […]

[3] = Plasma concentration of DM 10-12 hours after oral dosing, without and with quinidine (Examples 2 and 3); type: in vivo, human; conditions: effect of quinidine on plasma DM, words
Description: Plasma Concentrations of DM
Five patients were orally administered 120 mg of DM, with no co-administration of quinidine. Between 10 and 12 hours later, blood was sampled, blood plasma was isolated by centrifugation, and the plasma was analyzed to determine the DM concentration using the thebaine/HPLC method.
During a different week, the same patients were orally administered 60 mg of DM (half the control dosage) and 150 mg of quinidine. Between 10 and 12 hours later, blood was sampled and the plasma was analyzed for DM using thebaine/HPLC.
Additional studies were undertaken using a range of dosages of DM to establish a dose-response curve that correlates the quantity of DM orally administered to a patient with blood plasma concentrations 10 to 12 hours later (determined as described in Example 2). All patients received 150 mg of quinidine daily. The results of those studies are shown in graphical form in FIG. 2, with mean values shown as open squares and standard deviation ranges shown by vertical bars. The ascending line through the median values is a linear approximation; a curve based on more extensive data would probably show a horizontal asymptote.

ALS patients = conditions: DM up to about 300 mg/day or higher; quinidine in prolonged QT interval; cited from earlier work
liver cell preparations = conditions: Broly et al 1989; cited from earlier work
debrisoquin hydroxylase [4] = experiment: Urinary DM/DR ratio with other antioxidants in specific patients (Example 5)
Description: The second method involves sampling body fluids to compare the concentrations of DM and its primary metabolite, dextrorphan (DR). Although blood concentrations can be directly evaluated by drawing blood samples if desired, an easier and painless approach is to analyze urine samples. Blood or urine samples can be processed using methods such as high performance liquid chromatography (HPLC), as described in Example 5. […] The height of each peak, or the area under each peak, will indicate the quantity of each compound in the blood or urine sample. The heights of the DM and DR peaks are then divided, to determine the DM/DR ratio. The ratio which occurs after administration of a candidate antioxidant drug is compared to the DM/DR ratio in the same patient under control conditions (i.e., before administration of any antioxidant).
Preliminary Analysis of Other Antioxidants
To further evaluate that possibility, the Applicant arranged for chemical analyses of urine samples, using HPLC, in the labs of an independent investigator.

sigma receptors = conditions: reportedly; cited from earlier work
[5] = test system: N-methyl-D-aspartate (NMDA) receptors; conditions: reportedly; cited from earlier work
[6] = test system: neuronal calcium channels; conditions: reportedly; Carpenter et al 1988; cited from earlier work

Structure (SMILES): CC(C)(C)NC[C@H](O)COc1nsnc1N1CCOCC1 [timolol]
- In vitro activity in inhibiting debrisoquin hydroxylase [1]: significant in vitro activity

Structure (SMILES): Cc1cccc(C)c1OCC(C)N (stereo not drawn) [mexiletine]
- In vitro activity in inhibiting debrisoquin hydroxylase [1]: significant in vitro activity

Structure (SMILES): C=C[C@H]1C[N@@]2CC[C@H]1C[C@H]2[C@H](O)c1ccnc2ccc(OC)cc12 [quinine]
- In vitro activity in inhibiting debrisoquin hydroxylase [1]: significant in vitro activity

Structure (SMILES): COC(=O)[C@@H]1[C@H]2C[C@H]3c4[nH]c5ccccc5c4CCN3C[C@@H]2CC[C@@H]1O [yohimbine]
- In vitro activity in inhibiting debrisoquin hydroxylase [1]: significant in vitro activity; also recorded: relatively potent

Structure (SMILES): CNCCC=C1c2ccccc2CCc2ccccc21 [nortriptyline]
- In vitro activity in inhibiting debrisoquin hydroxylase [1]: significant in vitro activity

Structure (SMILES): O=C(CCCN1CCC(O)(c2ccc(Cl)cc2)CC1)c1ccc(F)cc1 [haloperidol]
- In vitro activity in inhibiting debrisoquin hydroxylase [1]: significant in vitro activity; also recorded: relatively potent

Structure (SMILES): COCCc1ccc(OCC(O)CNC(C)C)cc1 (racemic) [metaprolol]
- In vitro activity in inhibiting debrisoquin hydroxylase [1]: significant in vitro activity

Structure (SMILES): C=C[C@H]1C[N@@]2CC[C@H]1C[C@@H]2[C@@H](O)c1ccnc2ccc(OC)cc12 [quinidine]
- Increase of DM/DR ratio, all test subjects (debrisoquin hydroxylase [2]; all test subjects): at least 2 orders of magnitude
- Increase of DM/DR ratio, usually (debrisoquin hydroxylase [2]; usual case): more than 3 orders of magnitude
- In vitro activity in inhibiting debrisoquin hydroxylase [1]: most powerful of these inhibitors; also recorded: most potent inhibitor of the sparteine monooxygenase enzyme; also recorded: potent inhibitor of the debrisoquin hydroxylase enzyme
- Ki ([1]; in vitro, read-out: Ki (Michaelis-Menton inhibition)): 60 nM
- DM plasma level, with or without quinidine [3]: major increase in the concentration of DM in the blood plasma; also recorded: pronounced effect in increasing and stabilizing the quantity of DM circulating in the blood; also recorded: highly effective in increasing DM concentrations
- Adverse effects (general knowledge) (ALS patients): cardiac arrest (which can be fatal)
- DM oxidation / metabolism in liver cell preparations (liver cell preparations): suppresses DM oxidation in liver cell preparations

Structure (SMILES): CC[C@H]1[C@@H]2C[C@H]3[C@@H]4N(C)c5ccccc5[C@]45C[C@@H]([C@H]2[C@H]5O)N3[C@@H]1O [ajmaline]
- In vitro activity in inhibiting debrisoquin hydroxylase [1]: significant in vitro activity; also recorded: relatively potent

Structure (SMILES): C=C[C@H]1C[N@@]2CC[C@H]1C[C@H]2[C@H](O)c1ccnc2ccc(OC)cc12 [quinine sulfate]
- DM/DR ratio (antioxidant) (debrisoquin hydroxylase [4]; urine, HPLC, antioxidant in brackets, preliminary, one value per patient): 0.09 and 0.05

Structure (SMILES): NC(=O)C1(N2CCCCC2)CCN(CCCC(=O)c2ccc(F)cc2)CC1 [pipamperone]
- In vitro activity in inhibiting debrisoquin hydroxylase [1]: significant in vitro activity; also recorded: relatively potent

Structure (SMILES): CC(CCc1ccccc1)NCC(O)c1ccc(O)c(C(N)=O)c1 (stereo not drawn) [labetalol]
- In vitro activity in inhibiting debrisoquin hydroxylase [1]: significant in vitro activity

Structure (SMILES): O=c1[nH]c2ccccc2n1CCCN1CCC(n2c(=O)[nH]c3cc(Cl)ccc32)CC1 [domperidone]
- In vitro activity in inhibiting debrisoquin hydroxylase [1]: significant in vitro activity

Structure (SMILES): CC(C)NCC(O)COc1cccc2ccccc12 (stereo not drawn) [propranolol]
- In vitro activity in inhibiting debrisoquin hydroxylase [1]: significant in vitro activity

Structure (SMILES): CNCCC(Oc1ccc(C(F)(F)F)cc1)c1ccccc1 (stereo not drawn) [fluoxetine]
- Effect on DM concentrations in the blood / debrisoquin hydroxylase oxidative activity (debrisoquin hydroxylase [4]; ALS patient taking fluoxetine, research by the Applicant): can suppress the oxidative activity of the debrisoquin hydroxylase enzyme, albeit at a potency substantially below that of quinidine; also recorded: effective in increasing DM concentrations in the blood

Structure (SMILES): CN1CC[C@@]23CCCC[C@@H]2[C@@H]1Cc1ccc(O)cc13 [dextrorphan]
- Activity at sigma receptors (sigma receptors): sigma agonists
- Activity at NMDA receptors [5]: NMDA antagonists
- Activity at neuronal calcium channels [6]: calcium channel antagonists

Structure (SMILES): COc1ccc(Cc2nccc3cc(OC)c(OC)cc23)cc1OC [papaverine]
- In vitro activity in inhibiting debrisoquin hydroxylase [1]: significant in vitro activity

Structure (SMILES): CN1[C@@H](CC(=O)c2ccccc2)CCC[C@H]1C[C@H](O)c1ccccc1 [lobeline]
- In vitro activity in inhibiting debrisoquin hydroxylase [1]: significant in vitro activity; also recorded: relatively potent

Structure (SMILES): C=CCOc1ccccc1OCC(O)CNC(C)C (stereo not drawn) [oxprenolol]
- In vitro activity in inhibiting debrisoquin hydroxylase [1]: significant in vitro activity
